Source: ChEMBL document CHEMBL1157539, “Thousands of chemical starting points for antimalarial lead identification” (Nature, 2010)

Each molecule was assayed on Plasmodium falciparum (assay: GSK_TCMDC: Inhibition of Plasmodium falciparum 3D7 in whole erythrocytes, using parasite LDH activity as an index of growth.). Conditions: Plasmodium falciparum, 3D7.
Type: functional, organism-based

Compound | XC50 [nM]
CC(C)N1CCC(N(Cc2ccc(-c3ccc(C(F)(F)F)cc3)cc2)C(=O)Cn2c(CCc3cccc(F)c3F)nc(=O)c3cccnc32)CC1 | 642
OC(CNCc1ccccc1Oc1ccccc1)c1cc(Br)cs1 (configuration not stated) | 1110
CC(C)Nc1ccc(Nc2ccnc3cc4ccccc4cc23)cc1 | 142
O=C(Nc1cc(Cl)ccc1O)c1cnn2c(C(F)(F)F)cc(-c3cccs3)nc12 | 859
CO/C(=C\C=C\c1cc2cc(Cl)c(Cl)cc2[nH]1)C(=O)NC1CC(C)N(C)C(C)C1 (configuration not stated) | 902
CC(=O)NCCNCc1cccc(C(=O)NCc2cccc(C(F)(F)F)c2)c1 | 1080
CCNc1cc(C(=O)N[C@@H](Cc2ccccc2)[C@H](O)CNCCc2ccccc2)cc(N2CCCCS2(=O)=O)c1 | 936
COc1ccc(CN2CCCN(Cc3cccc(NC(=O)c4ccc(Cl)c(Cl)c4)c3)CC2)cc1 | 973
CN(C)CCOc1cc(NC(=O)Nc2ccc(-c3ccccc3)cc2)ccc1I | 595
CC(C)CN1CCC(N(C)c2cc(NC(=O)c3cccc(F)c3)ccn2)CC1 | 848
Cc1cccc2nc(-c3cccc(-c4ccc(NC(=O)Cc5ccon5)cc4)c3)[nH]c12 | 1090
COc1ccc(NCCCNc2ccnc3ccccc23)cc1 | 966
CCCCCc1cc(OC(C)=O)c2c(c1)OC(C)(C)C=C2C1=CCN(Cc2ccccc2)CC1 | 926
CC(CCc1ccccc1)NCC(O)c1cccc(C(F)(F)F)c1 (configuration not stated) | 709
c1ccn2c(Sc3ncnc4sccc34)ncc2c1 | 663
OC(CNCc1cccc(Oc2ccc(Cl)cc2)c1)c1cccc(C(F)(F)F)c1 (configuration not stated) | 971
Cc1ccc(-c2nc3cc(C(=O)NC4CCC(N5CCCc6ccc(C#N)cc6C5)CC4)ccc3[nH]2)cc1 (configuration not stated) | 1360
N#CC(CC(=O)c1ccc(Cl)cc1)c1cccc(F)c1 (configuration not stated) | 854
Nc1ncc(-c2ccc3ncccc3c2)c(N)n1 | 918
Cc1ccc(/C=C/C(=O)N2CCC(CCN3CCC(c4c[nH]c5ccccc45)CC3)CC2)cc1C | 926
O=C(Nc1cccc(-c2nn3ccccc3c2-c2ccnc(Nc3ccc(NCCCN4CCOCC4)c(F)c3)n2)c1)c1c(F)cccc1F | 259
Cc1cc(C(=O)CN2C(=O)NC(C)(c3cccc4ccccc34)C2=O)c(C)n1Cc1ccco1 (configuration not stated) | 626
N=C1C=C(N)C(=O)c2ccccc21 | 1050
Cc1cc(C(=O)CN2C(=O)NC(C)(c3ccc4ccccc4c3)C2=O)c(C)n1Cc1ccco1 (configuration not stated) | 661
COc1ccc2ncc(F)c(CCN3CCC(NCc4cc5c(cn4)OCCS5)CC3)c2c1 | 776

Compound | XC50 [nM]
Oc1ccc(C=NNC(S)=Nc2cccc3ccccc23)c(O)c1 | 1040
COc1ccc2nc3ccccc3c(NCCN3CCN(C)CC3)c2c1 | 1290
CN(C)CCCNCc1ccc(-c2ccc(F)c(Cl)c2)o1 | 802
CSc1c(CNCCCNc2cc(=O)c3ccccc3[nH]2)[nH]c2ccccc12 | 1120
CCOc1ccc(-c2nc(NC(=O)Cc3cccc(OC)c3)sc2C)cc1 | 730
Cc1cc(N[C@@H](Cc2ccccc2)C(=O)NCCOc2ccccc2)nc(NCCc2ccc(F)cc2)n1 | 603
Cc1sc(CNCCCNc2cc(=O)c3ccccc3[nH]2)c(I)c1C | 849
N=C(N)Nc1nc(-c2cccc(NC(=O)C(F)(F)F)c2)cs1 | 1050
Cn1c(N)cc(-c2ccc(Br)cc2)c2c(=O)nc(N)nc1-2 | 1130
CC1CNC(c2ccc(NC(=O)c3ccc(C(=O)Nc4ccc(C5=NC(C)CN5)cc4)cc3)cc2)=N1 (configuration not stated) | 33.6
Cc1ccc(CN2CCCN(Cc3cccc(NC(=O)c4cc5ccccc5s4)c3)CC2)cc1C | 735
COc1cc(F)c2ncc(Cl)c(CCN3CCC(NCc4ccc5c(n4)NC(=O)CO5)CC3)c2c1 | 504
CCCCCOc1ccc(C=NNc2nc(O)cc(-c3ccccc3)n2)cc1 | 887
Cc1nc(-c2cccc(Nc3nccc(NCC(O)c4ccccc4)n3)c2)cs1 (configuration not stated) | 793
CC[C@H]1CN(Cc2ccccc2Br)CC[C@H]1CCCc1ccnc2ccc(O)cc12 | 1000
CCc1c[nH]c2c(N3CCCS3(=O)=O)cc(C(=O)N[C@@H](Cc3ccccc3)[C@H](O)CNC(C)(C)CCCC(C)C)cc12 | 672
COc1ccc2nccc([C@@H](O)CN3CCC(NCc4cnc5c(c4)NC(=O)CS5)C(F)C3)c2c1 (some centres not stated) | 769
CN(C)CCN(Cc1ccccc1-c1ccc(CNCCc2ccccc2)cc1)C(=O)NC1CCCCC1 | 906
Oc1ccc(CCNc2nc(NCc3ccccc3-c3ccc(C(F)(F)F)cc3)nc(N3CCNCC3)n2)cc1 | 866
COc1ccc(-c2cnc3ccc(N4CCCC4)nn23)cc1OC | 772
COc1ccc2nccc([C@H](O)CN3CCC(NCc4nc5cccc(F)c5[nH]4)CC3)c2c1 | 705
Fc1ccc2[nH]c(-c3cccc(-c4ccc(CN5CCN(c6cnccn6)CC5)cc4)c3)nc2c1 | 893
CC1CN(Cc2ccc(C#N)cc2)CCN1c1ccc(NC(=O)c2cccs2)cc1 (configuration not stated) | 809
O=C(Nc1cccc(C(F)(F)F)c1)NC1CCN(c2ccnc3ccccc23)C1 (configuration not stated) | 289
CC(=O)N(C)c1ccc(C(=O)Nc2cccc(-c3cccc(-c4nc5cc(C(F)(F)F)ccc5[nH]4)c3)c2)cc1 | 314

Compound | XC50 [nM]
CCc1cn2c3c(cc(C(=O)N[C@@H](Cc4cccc(F)c4)[C@H](O)CNC4CCCCC4)cc13)N(C)S(=O)(=O)CC2 | 29.7
c1cc(Cc2ccc(Nc3c4ccccc4nc4ccccc34)cc2)cc(Nc2c3ccccc3nc3ccccc23)c1 | 143
CCc1ccc(N2C(N)=NC(N)=NC2(C)C)cc1 | 8.82
CS(=O)(=O)Nc1cccc(-c2cnc3[nH]cc(-c4cccc(CN)c4)c3c2)c1 | 1660
Cc1[nH]c2ccccc2c1C1=CCN(CCCCC23CCCc4cccc(c42)NC3=O)CC1 (configuration not stated) | 231
Cc1ccc(S(=O)(=O)N(CCCN2CCN(C)CC2)Cc2csc(-c3ccc(CNCc4ccccc4)cc3)n2)cc1 | 841
O=C(Nc1cccc(-c2ccc(-c3nc4ccccc4[nH]3)cc2)c1)Nc1ccc2c(c1)OCO2 | 671
COc1ccc(CCCc2nc(N)nc(N)c2-c2ccc(Cl)cc2)cc1 | 44.2
Cc1cc2nc(-c3ccc(/C=C/C(=O)NCCc4ccccc4)cc3)[nH]c2cc1C | 779
CC(C)C[C@H](NC(=O)c1ccc(OCCN2CCOCC2)cc1)C(=O)N[C@H](/C=N/N1CC(=O)NC1=O)CCc1ccccc1 | 277
O=[N+]([O-])c1cccc(CNCC2CCC(CNCc3cccc([N+](=O)[O-])c3)CC2)c1 (configuration not stated) | 138
CCN(CC)CCCNC(=O)/C(=C/C=C/c1cc2cc(Cl)c(Cl)cc2[nH]1)OC | 1160
Cc1cccc(Cl)c1Nc1nnc(-c2cccc(C(=O)NC[C@@H]3CC[C@H]4C[C@@H]3C4(C)C)c2)o1 | 273
c1cncc(CN2CCN(Cc3ccc(-c4ccc(-c5nc6ccccc6[nH]5)s4)cc3)CC2)c1 | 938
CCNC(=O)Nc1cccc(-c2cccc(-c3nc4cccc(C)c4[nH]3)c2)c1 | 1040
Cc1cccn2c(=O)c3cc(C(=O)NCCN4CCOCC4)c(=N)n(CCc4ccccc4)c3nc12 | 468
Cc1ccccc1C1CCN(c2ccc(C(=O)NC3CC3)cn2)CC1 | 846
Cc1c(CN2CCC(N3CCC(C(=O)NC4CC4)CC3)CC2)[nH]c2c(Cl)cccc12 | 1190
O=C(Nc1ccc(C(=O)OCC2CCCCC2)cc1)N[C@@H](Cc1ccc(O)cc1)C(=O)NC1CCN(Cc2ccc(O)cc2)C1 (some centres not stated) | 874
O=C(Nc1cccc(N2CCC(NCCCn3ccnc3)CC2)c1)c1cccc(C(F)(F)F)c1 | 1110
COc1ccc(CNCCCCCCNCCc2ccc(Cl)cc2)cc1OC | 1390
C[C@@H](CC1CCCCC1)NCc1cccc(NS(=O)(=O)c2ccc(O)c(-c3ccno3)c2)c1 | 376
COc1cccc(CN2Cc3ccccc3OC3(CCN(Cc4c[nH]c5cnccc45)CC3)C2)c1 | 1300
CCN(CC)CCN(Cc1ccc(-c2ccc(C(F)(F)F)cc2)cc1)C(=O)c1ccc(-c2ccc(NC(=O)OC)cc2C)cc1 | 929
O=C(NCc1ccc(C(=O)NC2CCCCCC2)cc1)c1ccc(O)c(-c2ccc(Cl)c(Cl)c2)c1 | 1060

Compound | XC50 [nM]
O=C(Nc1ccc2ccccc2c1)N(CCCn1ccnc1)Cc1csc(-c2ccc(CNCc3ccccc3)cc2)n1 | 739
c1ccc(CN2CCc3cc4nccc(N5CCNCC5)c4cc32)cc1 | 400
COc1ccc(CN2CCCN(Cc3cccc(C(=O)Nc4ccc(C(C)(C)C)cc4)c3)CC2)cc1 | 891
N#Cc1ccc(N2C[C@@H](OCc3ccccc3)C[C@H]2C(=O)NCCC(c2ccccc2)c2ccccc2)c2ccccc12 | 856
OC(CNCc1ccccc1Oc1ccccc1)c1cccc(C(F)(F)F)c1 (configuration not stated) | 713
CNC(=O)c1cnc(Nc2ccc(N3CCOCC3)cc2)nc1Nc1cccc(OC)c1 | 759
Cc1cc(N2CCCC2=O)ccc1-c1ccc(C(=O)N2CCC(Oc3cccc(Cl)c3)CC2)cc1 | 427
COc1cc2nc(-c3ccccc3)nc(N3CCN(C(=O)c4ccco4)CC3)c2cc1OC | 1410
CN(CCCNCc1ccc2ccccc2c1)CCCNCc1ccc2ccccc2c1 | 391
S=C(Nc1ccccc1Cl)NC1CCC(CN2CCC(c3c[nH]c4ccccc34)CC2)CC1 (configuration not stated) | 1050
NC1CCN(Cc2ccc(-c3cccc(-c4nc5cc(F)ccc5[nH]4)c3)cc2)C1 (configuration not stated) | 759
COc1ccc(C(=O)Nc2cc(Cl)c3c(c2)C2CCCN2CC3)cc1C(F)(F)F (configuration not stated) | 753
Cc1cccc(CN2CCCN(Cc3cccc(C(=O)Nc4ccc(C(C)(C)C)cc4)c3)CC2)c1 | 934
NOCCCCOc1ccccc1 | 177
Cc1ccc(Oc2c(-c3ccccc3CN3CCCC3CN(C)C)cnn(C)c2=O)cn1 (configuration not stated) | 1160
O=C(/C=C/c1ccc(Cl)c(Cl)c1)NCCCCCN1CCC(NC(=O)c2ccc(F)cc2)CC1 | 706
CC(C)CCCC(C)(C)NC[C@@H](O)[C@H](Cc1ccccc1)NC(=O)c1cccc(CCC2CC2)c1 | 796
O=C(NCC1CCN(Cc2cccc(C(F)(F)F)c2)C1)c1cc(-c2cccc(F)c2)cs1 (configuration not stated) | 1180
Cc1csc2nc(-c3ccccn3)nc(Nc3ccncn3)c12 | 786
Cc1nc(C)c(CC(=O)Nc2cccc(-c3cccc(-c4nc5cc(C(F)(F)F)ccc5[nH]4)c3)c2)s1 | 827
COc1ccc(-c2csc3nc(C)nc(Cl)c23)cc1OC | 357
Cc1cc(F)ccc1Nc1nc(N(C)c2ccccc2)c2cccc(OCCO)c2n1 | 795
